In PubChem BioAssay (NCI) one finds GI50 and TGI data, which are given here for 41 compounds.

Where “and” joins values, the source holds several entries; their conditions need not be identical. Equal values may be shown once.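 Five concentrations, 48 hours, 96-well plates. Here, GI50 denotes the concentration required for 50% inhibition of growth. TGI is the concentration that stops growth completely.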

The test relates to MDA-MB-468 breast. As to the kind of experiment: NCI tumour cell line growth inhibition, 48 h.

Consider `COc1ccc(-n2c(=O)c3ccccc3n(Cc3ccc(C(=O)NO)cc3)c2=O)cc1`, for which the GI50 was 1440 nM and the TGI worked out at 3490 nM.

Turning to `O=C1[C@H](Cc2ccc(O)cc2)N2C(=O)CCN(C(=O)NCc3ccccc3)[C@H]2CN1Cc1cccc2ccccc12`, the GI50 is 5660 nM and the TGI came out at 23200 nM.

Consider `CN1CCN(C(=O)/C=C/c2ccc([N+](=O)[O-])o2)CC1`, for which the GI50 is 12100 nM and the TGI was found to be 28500 nM.

On to `C/C(=C\c1csc(C)n1)[C@@H]1C[C@@H]2O[C@]2(C)CCC[C@H](C)[C@H](O)[C@@H](C)C(=O)C(C)(C)[C@@H](O)CC(=O)N1`, for which the GI50 is 0.233 nM and the TGI stood at 0.58 nM.

Take `CCN1CCN(c2ccc(NC(=O)Nc3ccc4c(ccn4-c4ccnc(C(=O)NC)c4)c3)cc2C(F)(F)F)CC1`: the GI50 is above 14300 nM and the TGI was above 14300 nM.

For `O=C(CCN1CCOCC1)Nc1ccc(Cn2nnc3c2C(=O)c2nnn(Cc4ccc(NC(=O)CCN5CCOCC5)cc4)c2C3=O)cc1`, the GI50 is 257 nM and the TGI turned out to be 627 nM.

Take `Nc1cc(C(F)(F)F)c(-c2nc(N3CCOCC3)nc(N3CCOCC3)n2)cn1`: the GI50 was 180 nM and the TGI was determined as 897 nM.

As for `Cc1ccc(-c2nc([P+](c3ccccc3)(c3ccccc3)c3ccccc3)c(N3CCOCC3)o2)cc1`, the GI50 was 248 nM and the TGI came to 870 nM.

For the compound `O=[N+]([O-])c1ccc(N/N=C\c2cc(Br)ccc2O)nc1`, the GI50 is 1710 nM and the TGI is 4320 nM.

Turning to `CN(C)[C@@H]1C(=O)C(C(=O)NCc2nc3[nH]cnc(=S)c3[nH]2)=C(O)[C@@]2(O)C(=O)C3=C(O)c4c(O)cccc4[C@@](C)(O)[C@H]3C[C@@H]12`, the GI50 is 955 nM and the TGI was above 100000 nM.

For the compound `Oc1ccc(CSc2nnc(-c3ccc(Oc4ccccc4)cc3)o2)c2cccnc12`, the GI50 is 1760 nM and the TGI was above 100000 nM.

Turning to `CN(C)CCCC1(c2ccc(F)cc2)OCc2cc(-c3csc4ccccc34)ccc21` (configuration not stated), the GI50 was 1540 nM and the TGI came to 3120 nM.

For `Oc1ccc(CSc2nnc(-c3ccccc3)n2-c2ccccc2)c2cccnc12`, the GI50 is 497 nM and the TGI amounted to 6820 nM.

As to `Cc1cccc(Oc2ccc(Nc3ncnc4ccc(NC(=O)CN(C)C)cc34)cc2Cl)c1`, the GI50 was 180 nM and the TGI is 1380 nM.

Turning to `CC1=C(C(=O)Nc2ccc3[nH]ncc3c2)C(c2ccc(F)cc2)N=C(c2ccc(C(F)(F)F)nc2)N1` (configuration not stated), the GI50 was 5650 nM and the TGI was found to be 15500 nM.

Regarding `CN(C)c1ccc(/C=N/N=C(\C#N)[S][Sn]([Cl])([c]2ccccc2)[c]2ccccc2)cc1`, the GI50 is 480 nM and the TGI worked out at 2000 nM.

In the case of `CC(C)c1ccc2c(c1)CCC1C2CCCC1(C)NCc1ccccc1` (configuration not stated), the GI50 was 1900 nM and the TGI worked out at 4160 nM.

As for `FC(F)(F)c1cccc(CNC2CCN(CCc3ccccc3)CC2)c1`, the GI50 was 13500 nM and the TGI was determined as 30200 nM.

Take `COc1cc(/C=C/c2cc(/C=C/c3ccc(O)c(OC)c3)n(C(=O)Nc3ccc(C)cc3)n2)ccc1O`: the GI50 was 301 nM and the TGI was 1710 nM.

On to `COc1cc(/C=C/C(=O)c2nc3cc(F)ccc3nc2C)cc(OC)c1OC`, for which the GI50 was 2750 nM and the TGI was above 100000 nM.

For the compound `Oc1c(Br)cc(Cl)cc1C(c1cc(Cl)cc(Br)c1O)C(Cl)(Cl)Cl`, the GI50 is 2200 nM and the TGI was found to be 7250 nM.

`CCN1CCN(CC(=O)Nc2nc3ccc(NCc4ccc(Br)cc4)cc3s2)CC1`: the GI50 is 1740 nM and the TGI is 4510 nM.

For `COc1ccccc1CNCCCN1C(=O)c2ccc3c4c(ccc(c24)C1=O)C(=O)N(CCCNCc1ccccc1OC)C3=O`, the GI50 was 138 nM and the TGI stood at 288 nM.

`O=C(NO)c1ccc(CNc2cccc3nc(C4CC4)n(-c4ccccc4)c(=O)c23)cc1`: the GI50 was 1880 nM and the TGI is 5160 nM.

As for `O=C1C[C@@H]2OCC=C3C[N+]4([O-])CC[C@]56c7ccccc7N1[C@H]5[C@H]2[C@H]3C[C@@H]64` (some centres not stated), the GI50 is above 100000 nM and the TGI is above 100000 nM.

For `COc1ccc(Cn2c(Br)c3c(c2-c2cc(OC)c(OC)c(OC)c2)CCc2sc(N)nc2-3)cc1`, the GI50 is 3130 nM and the TGI was 41900 nM.

On to `CC[C@]12C=CCN3CC[C@@]4(c5ccc(OC)cc5N(C)[C@H]4[C@@](O)(C(=O)OC)[C@@H]1OC(=O)CCCN1CCN(CCCC(=O)O[C@@H]4[C@]5(CC)C=CCN6CC[C@@]7(c8ccc(OC)cc8N(C)[C@H]7[C@@]4(O)C(=O)OC)[C@@H]65)CC1)[C@@H]32`, for which the GI50 is 252 nM and the TGI came out at 730 nM.

With `CN1CCN(c2ccc(NC(=O)Nc3ccc4c(ccn4-c4cccc(C(N)=O)n4)c3)cc2C(F)(F)F)CC1`, the GI50 was 4300 nM and the TGI was 12100 nM.

In the case of `COc1ccc(-c2c(Nc3ccccn3)nc3c(C4=CCCCC4)c(-c4ccccc4)[nH]n3c2=O)cc1`, the GI50 was 1910 nM and the TGI was 8650 nM.

As for `O=C(O)CSc1cc(NS(=O)(=O)c2ccc(Br)cc2)c2ccccc2c1O`, the GI50 is 1870 nM and the TGI was found to be 4340 nM.

For the compound `CNCc1cccc2c1OCCOCCOCCNS(=O)(=O)c1ccc(cc1)-c1cnc(N)c(n1)C(=O)N2`, the GI50 was 1510 nM and the TGI amounted to 3250 nM.

With `CCN(CC)CCn1c2ccc(O)cc2c2sc3cc(OC)ccc3c(=O)c21`, the GI50 is 1540 nM and the TGI was determined as 3000 nM.

Consider `O=C1NC(=NCc2cccs2)O/C1=C\c1ccc2ncccc2c1`, for which the GI50 was 3410 nM and the TGI stood at 13900 nM.

Regarding `CNS(=O)(=O)Nc1nccc(Cc2c(C)c3ccc(Oc4ncccn4)cc3oc2=O)c1F`, the GI50 was 3460 nM and > 5440 nM; the TGI was 82600 nM and > 10000 nM.

`N#C[Se]CCN1C(=O)c2ccccc2C1=O`: the GI50 is 2010 nM and the TGI was 6990 nM.

In the case of `CCOC(=O)C#Cc1c(C(=O)OCC)nnn1[C@@H]1O[C@H](COC)[C@@H](OC)[C@H]1OC`, the GI50 was 2130 nM and the TGI worked out at 5430 nM.

For the compound `COc1cc(NC(=O)COc2ccccc2)c(C(N)=O)cc1OC`, the GI50 is 848 nM and the TGI was determined as 72100 nM.

Turning to `O=S(=O)(Nc1ccccc1)c1ccc(C2CC3(Cl)C(Cl)=C(Cl)C2(Cl)C3(Cl)Cl)cc1` (configuration not stated), the GI50 was 2640 nM and the TGI was 7860 nM.

As for `O=c1c(Oc2ccc(F)cc2F)cc2cnc(NC3CCOCC3)nc2n1C1CC1`, the GI50 was above 25000 nM and the TGI was above 25000 nM.

On to `OCc1ccc(N2CCc3ccc(F)cc3C2)cc1Cl`, for which the GI50 is below 12.9 nM and the TGI was 35.1 nM.

Turning to `COc1ccc([C@@H]2[C@@H](Oc3ccccc3)C(=O)N2c2cc(OC)c(OC)c(OC)c2)cc1F`, the GI50 was 111 nM and the TGI is above 100000 nM.
